# Article PMC6131557, “Selective Cytotoxicity of Dihydroorotate Dehydrogenase Inhibitors to Human Cancer Cells Under Hypoxia and Nutrient-Deprived Conditions” (Frontiers in Pharmacology, 2018)
# Like-named read-outs stand apart in the source and are kept apart here.
# Columns and labels:
# SNB-75 = assay: 39-cancer cell panel assay: SNB-75; format: cell-based; settings: Homo sapiens, CNS
# [1] = target: T1, human dihydroorotate dehydrogenase (HsDHODH) (Homo sapiens, UniProt Q02127); assay: Inhibition of recombinant human DHODH enzyme activity; format: biochemical; settings: for IC50: recombinant human DHODH
# T1 construct: made in house
# RXF-631L = assay: 39-cancer cell panel assay: RXF-631L; format: cell-based; settings: Homo sapiens, Re
# HBC-5 = assay: 39-cancer cell panel assay: HBC-5; format: cell-based; settings: Homo sapiens, HBC5, Br
# DLD-1 cells = assay: Cytotoxicity assay (Cell Counting Kit-8 / WST-8) on DLD-1 cells; format: cell-based, human; settings: Homo sapiens
# Description: (§1) For hypoxia and nutrient-deprived culture conditions, cells were incubated under 1% oxygen in glucose and glutamine-free DMEM (Gibco) without FBS.
# (§2) DLD-1 or HDF cells were seeded at 2.5 × 10^4 cells/well on a 96-well plate with normal medium, and cultured overnight under normal culture condition. The cells were washed with PBS and the medium was replaced to either normal medium or glucose and glutamine-free DMEM without FBS. Test compounds or DMSO as a control were added to the wells. The cells in normal medium were cultured under normal culture conditions, while cells in nutrient-deprived medium were cultured under hypoxia condition. After 24 or 48 h incubation, the cells were washed with PBS, 100 μl of fresh normal medium, and 10 μl of Cell Counting Kit-8 solution (Donjindo, Japan) was added to each well. After 3 h incubation under normal culture condition, the absorbance was measured at 450 nm using SpectraMax M2e-TUY microplate reader (Molecular Devices). Cell viability of test wells was calculated based on absorbance of control wells containing DMSO according to manufacturer’s protocol.
# OVCAR-3 = assay: 39-cancer cell panel assay: OVCAR-3; format: cell-based; settings: Homo sapiens, Ov
# NCI-H226 = assay: 39-cancer cell panel assay: NCI-H226; format: cell-based; settings: Homo sapiens, Lu
# SNB-78 = assay: 39-cancer cell panel assay: SNB-78; format: cell-based; settings: Homo sapiens, CNS
# MDA-MB-231 = assay: 39-cancer cell panel assay: MDA-MB-231; format: cell-based; settings: Homo sapiens, Br
# LOX-IMVI = assay: 39-cancer cell panel assay: LOX-IMVI; format: cell-based; settings: Homo sapiens, Me
# OVCAR-5 = assay: 39-cancer cell panel assay: OVCAR-5; format: cell-based; settings: Homo sapiens, Ov
# OVCAR-8 = assay: 39-cancer cell panel assay: OVCAR-8; format: cell-based; settings: Homo sapiens, Ov
# Complex II–III = assay: Succinate-cytochrome c reductase (complexes II–III) activity, bovine mitochondria; format: biochemical
# Description: (§3) Recombinant human DHODH was purified, crystallized, and assayed as previously described ([Inaoka et al., 2016]) without modification. Bovine mitochondrial fractions were prepared as previously described ([Kita et al., 1988]) and NADH dehydrogenase (complex I), succinate:quinone reductase (complex II), quinol oxidase (complexes III–IV), NADH-cytochrome c reductase (complexes I–III), and succinate-cytochrome c (complexes II–III) activities were assayed following an established method ([Takamiya et al., 1986]; [Miyadera et al., 2001]; [Matsumoto et al., 2008]; [Kido et al., 2010]; [Nihashi et al., 2017]).
# NCI-H522 = assay: 39-cancer cell panel assay: NCI-H522; format: cell-based; settings: Homo sapiens, Lu
# DU-145 = assay: 39-cancer cell panel assay: DU-145; format: cell-based; settings: Homo sapiens, Pro
# MKN74 = assay: 39-cancer cell panel assay: MKN74; format: cell-based; settings: Homo sapiens, MKN-74, St
# HDF cells = assay: Cytotoxicity assay (Cell Counting Kit-8 / WST-8) on HDF cells; format: cell-based; settings: Homo sapiens
# Description: as §1, §2
# SF-539 = assay: 39-cancer cell panel assay: SF-539; format: cell-based; settings: Homo sapiens, CNS
# HBC-4 = assay: 39-cancer cell panel assay: HBC-4; format: cell-based; settings: Homo sapiens, HBC4, Br
# HT-29 = assay: 39-cancer cell panel assay: HT-29; format: cell-based; settings: Homo sapiens, Co
# Complex I = assay: NADH dehydrogenase (complex I) activity, bovine mitochondria; format: biochemical; settings: at 5 μM
# Description: as §3
# HCT-116 = assay: 39-cancer cell panel assay: HCT-116; format: cell-based; settings: Homo sapiens, Co
# U251 = assay: 39-cancer cell panel assay: U251; format: cell-based; settings: Homo sapiens, U-251, CNS
# HCC2998 = assay: 39-cancer cell panel assay: HCC2998; format: cell-based; settings: Homo sapiens, HCC 2998, Co
# St-4 = assay: 39-cancer cell panel assay: St-4; format: cell-based; settings: Homo sapiens
# KM-12 = assay: 39-cancer cell panel assay: KM-12; format: cell-based, human; settings: Co
# NCI-H460 = assay: 39-cancer cell panel assay: NCI-H460; format: cell-based; settings: Homo sapiens, Lu
# MKN28 = assay: 39-cancer cell panel assay: MKN28; format: cell-based; settings: Homo sapiens, MKN-28, St
# Complex II = target: T2, Complex II (Bos taurus, UniProt P35720+Q3T189+Q95123); assay: Succinate:quinone reductase (complex II) activity, bovine mitochondria; format: biochemical
# T2 construct: from tissue; host or cells: bovine mitochondrial fraction / sub-mitochondrial particles
# Complexes I–III = assay: NADH-cytochrome c reductase (complexes I–III) activity, bovine mitochondria; format: biochemical
# Description: as §3
# A549 = assay: 39-cancer cell panel assay: A549; format: cell-based; settings: Homo sapiens, Lu
# BSY-1 = assay: 39-cancer cell panel assay: BSY-1; format: cell-based; settings: Homo sapiens, Br
# SF-268 = assay: 39-cancer cell panel assay: SF-268; format: cell-based; settings: Homo sapiens, CNS
# SK-OV-3 = assay: 39-cancer cell panel assay: SK-OV-3; format: cell-based; settings: Homo sapiens
# DMS273 = assay: 39-cancer cell panel assay: DMS273; format: cell-based; settings: Homo sapiens, DMS-273, Lu
# DMS114 = assay: 39-cancer cell panel assay: DMS114; format: cell-based; settings: Homo sapiens, DMS-114, Lu
# PC-3 = assay: 39-cancer cell panel assay: PC-3; format: cell-based; settings: Homo sapiens, Pro
# ACHN = assay: 39-cancer cell panel assay: ACHN; format: cell-based; settings: Homo sapiens, Re
# HCT-15 = assay: 39-cancer cell panel assay: HCT-15; format: cell-based; settings: Homo sapiens, Co
# MKN1 = assay: 39-cancer cell panel assay: MKN1; format: cell-based; settings: Homo sapiens, MKN-1, St
# MKN45 = assay: 39-cancer cell panel assay: MKN45; format: cell-based; settings: Homo sapiens, MKN-45, St
# Complex III = target: T3, Complex III (Bos taurus, UniProt P00157); assay: Quinol oxidase (complex III) activity, bovine mitochondria; format: biochemical; settings: ubiquinol oxidase activity
# T3 construct: from tissue; host or cells: bovine mitochondrial fraction / sub-mitochondrial particles
# SF-295 = assay: 39-cancer cell panel assay: SF-295; format: cell-based; settings: Homo sapiens, CNS
# MKN7 = assay: 39-cancer cell panel assay: MKN7; format: cell-based; settings: Homo sapiens, MKN-7, St
# NCI-H23 = assay: 39-cancer cell panel assay: NCI-H23; format: cell-based; settings: Homo sapiens, Lu
# MCF-7 = assay: 39-cancer cell panel assay: MCF-7; format: cell-based; settings: Homo sapiens, MCF7, Br
# OVCAR-4 = assay: 39-cancer cell panel assay: OVCAR-4; format: cell-based; settings: Homo sapiens, Ov
# mammalian complex III = tested on: mammalian complex III; set-up: method as in Berry et al., 2010; settings: ref Berry et al., 2010; read-out: IC50 against mammalian complex III; cited from earlier work
# [2] = purified enzyme fixed at 10 nM, read-out: IC50 (nM), inhibition of human DHODH
# [3] = read-out: IC50 (μM) DLD-1 (24 h) Hypoxia nutrient (-), DLD-1, 24 h, hypoxia (1% oxygen), nutrient (-)
# [4] = read-out: IC50 (μM) DLD-1 (24 h) Normoxia nutrient (+), DLD-1, 24 h, normoxia, nutrient (+)
# [5] = DLD-1, 48 h, hypoxia (1% oxygen), nutrient (-), read-out: IC50 (μM) DLD-1 (48 h) Hypoxia nutrient (-)
# [6] = DLD-1, 48 h, normoxia, nutrient (+), read-out: IC50 (μM) DLD-1 (48 h) Normoxia nutrient (+)
# [7] = read-out: IC50 (μM) HDF (24 h) Hypoxia nutrient (-), hypoxia (1% oxygen), nutrient (-)
# [8] = read-out: IC50 (μM) HDF (24 h) Normoxia nutrient (+), normoxia, nutrient (+)
# T2 sequence (P31039 45-665 partner limits assumed): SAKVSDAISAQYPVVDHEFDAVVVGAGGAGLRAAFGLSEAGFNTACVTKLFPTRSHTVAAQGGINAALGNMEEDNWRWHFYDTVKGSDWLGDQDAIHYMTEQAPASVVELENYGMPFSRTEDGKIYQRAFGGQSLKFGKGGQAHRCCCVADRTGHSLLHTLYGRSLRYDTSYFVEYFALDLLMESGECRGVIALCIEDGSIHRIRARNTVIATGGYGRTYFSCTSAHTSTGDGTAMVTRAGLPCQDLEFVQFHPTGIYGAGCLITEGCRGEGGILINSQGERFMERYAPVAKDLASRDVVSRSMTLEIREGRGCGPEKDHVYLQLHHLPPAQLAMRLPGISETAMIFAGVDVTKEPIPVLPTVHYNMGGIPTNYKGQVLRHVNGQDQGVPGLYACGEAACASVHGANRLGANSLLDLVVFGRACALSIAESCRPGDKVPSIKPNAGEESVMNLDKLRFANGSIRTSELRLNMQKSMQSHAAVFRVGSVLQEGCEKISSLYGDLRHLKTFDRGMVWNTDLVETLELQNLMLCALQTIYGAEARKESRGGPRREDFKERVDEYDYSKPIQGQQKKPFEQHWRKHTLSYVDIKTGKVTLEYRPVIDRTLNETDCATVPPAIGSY
# T2 sequence (Q3T189 29-280): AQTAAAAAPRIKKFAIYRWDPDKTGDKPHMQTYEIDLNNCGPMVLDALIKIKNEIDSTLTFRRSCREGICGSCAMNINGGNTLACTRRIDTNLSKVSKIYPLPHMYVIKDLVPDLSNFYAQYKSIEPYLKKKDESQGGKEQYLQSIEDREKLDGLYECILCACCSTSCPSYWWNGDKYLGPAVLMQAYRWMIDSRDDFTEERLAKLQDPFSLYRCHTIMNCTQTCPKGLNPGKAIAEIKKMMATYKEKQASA
# T2 sequence (P35720 30-169): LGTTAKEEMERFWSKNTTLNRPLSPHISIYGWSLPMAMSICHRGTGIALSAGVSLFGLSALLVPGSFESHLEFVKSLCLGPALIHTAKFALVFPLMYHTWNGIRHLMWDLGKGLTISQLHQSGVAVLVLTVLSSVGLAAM
# T2 sequence (Q95123 56-158): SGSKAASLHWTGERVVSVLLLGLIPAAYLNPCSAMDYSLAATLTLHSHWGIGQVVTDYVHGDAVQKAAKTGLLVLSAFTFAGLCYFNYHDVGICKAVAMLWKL
# T1 sequence (Q02127 whole entry): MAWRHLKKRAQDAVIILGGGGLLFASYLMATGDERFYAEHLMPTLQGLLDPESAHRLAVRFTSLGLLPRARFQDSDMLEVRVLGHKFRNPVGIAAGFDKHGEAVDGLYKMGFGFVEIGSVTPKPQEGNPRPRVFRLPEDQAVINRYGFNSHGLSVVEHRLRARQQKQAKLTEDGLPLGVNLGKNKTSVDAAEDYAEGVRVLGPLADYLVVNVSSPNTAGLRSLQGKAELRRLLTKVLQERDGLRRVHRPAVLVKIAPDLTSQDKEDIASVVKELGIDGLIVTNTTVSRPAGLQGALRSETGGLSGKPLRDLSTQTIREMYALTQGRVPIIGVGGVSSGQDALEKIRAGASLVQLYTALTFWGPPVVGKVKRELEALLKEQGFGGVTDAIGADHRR
smiles,measurement,setting,value
COC(=O)/C(C)=C/CC/C(C)=C/Cc1c(O)c(Cl)c(C)c(C=O)c1O [Compound 9],GI50,SNB-75,9.7 µM
same,IC50,[1]; [2],~5 nM
same,GI50,RXF-631L,8.4 µM
same,GI50,HBC-5,28 µM
same,IC50,DLD-1 cells; [3],1.6 ± 0.42 µM
same,IC50,DLD-1 cells; [4],> 100 µM
same,IC50,DLD-1 cells; [5],0.67 ± 0.066 µM
same,IC50,DLD-1 cells; [6],> 100 µM
same,GI50,OVCAR-3,5.3 µM
same,GI50,NCI-H226,13 µM
same,GI50,SNB-78,8.8 µM
same,GI50,MDA-MB-231,14 µM
same,GI50,LOX-IMVI,2.1 µM
same,GI50,OVCAR-5,12 µM
same,GI50,OVCAR-8,9.1 µM
same,IC50,Complex II–III,5.7 ± 0.37 µM
same,GI50,NCI-H522,5.3 µM
same,GI50,DU-145,10 µM
same,GI50,MKN74,14 µM
same,IC50,HDF cells; [7],3.1 ± 0.19 µM
same,IC50,HDF cells; [8],> 100 µM
same,GI50,SF-539,0.54 µM
same,GI50,HBC-4,5.6 µM
same,GI50,HT-29,6.5 µM
same,Inhibition (%) Complex I,Complex I,7.6 ± 4.2%
same,GI50,HCT-116,2.5 µM
same,GI50,U251,0.97 µM
same,GI50,HCC2998,17 µM
same,GI50,St-4,7.5 µM
same,GI50 (μM) KM-12,KM-12,6.4 µM
same,GI50,NCI-H460,4.3 µM
same,GI50,MKN28,12 µM
same,inhibition at 5 µM,Complex II,5.3 ± 4.1%
same,IC50,Complexes I–III,1 ± 0.02 µM
same,GI50,A549,4.7 µM
same,GI50,BSY-1,27 µM
same,GI50,SF-268,8.1 µM
same,GI50,SK-OV-3,11 µM
same,GI50,DMS273,3 µM
same,GI50,DMS114,15 µM
same,GI50,PC-3,22 µM
same,GI50,ACHN,9.9 µM
same,GI50,HCT-15,0.83 µM
same,GI50,MKN1,14 µM
same,GI50,MKN45,14 µM
same,inhibition at 5 µM,Complex III,> 80%
same,GI50,SF-295,11 µM
same,GI50,MKN7,13 µM
same,GI50,NCI-H23,7.8 µM
same,GI50,MCF-7,7.3 µM
same,GI50,OVCAR-4,11 µM
"CC(/C=C/[C@@]1(C)[C@H](C)CCC(=O)[C@@H]1C)=C\Cc1c(O)c(Cl)c(C)c(C=O)c1O [Compound 10, Ascochlorin]",inhibition at 1 µM,"[1]; at 1,000 nM, read-out: Inhibition of HsDHODH activity (value in parentheses)",33%
same,IC50,"[1]; Table 6, read-out: IC50 (μM) HsDHODH",2300 ± 1900 nM
same,IC50,[1]; [2],> 1000 nM
same,IC50,Complex II–III,0.0069 ± 0.0002 µM
same,Inhibition (%) Complex I,Complex I,6.8 ± 4.1%
same,IC50,mammalian complex III,0.013 µM
same,inhibition at 5 µM,Complex II,3.6 ± 8.5%
same,IC50,Complexes I–III,0.0033 ± 0.0001 µM
same,inhibition at 5 µM,Complex III,94 ± 2.4%
CC(=O)OC(C)/C(C)=C/CC/C(C)=C/Cc1c(O)c(Cl)c(C)c(C=O)c1O (stereo not drawn) [Compound 7],GI50,SNB-75,22 µM
same,IC50,[1]; [2],6.4 ± 0.2 nM
same,GI50,RXF-631L,7.5 µM
same,GI50,HBC-5,25 µM
same,IC50,DLD-1 cells; [3],2 ± 0.19 µM
same,IC50,DLD-1 cells; [4],> 100 µM
same,IC50,DLD-1 cells; [5],0.95 ± 0.059 µM
same,IC50,DLD-1 cells; [6],> 100 µM
same,GI50,OVCAR-3,13 µM
same,GI50,NCI-H226,11 µM
same,GI50,SNB-78,21 µM
same,GI50,MDA-MB-231,11 µM
same,GI50,LOX-IMVI,1.5 µM
same,GI50,OVCAR-5,18 µM
same,GI50,OVCAR-8,8.8 µM
same,IC50,Complex II–III,2.3 ± 0.16 µM
same,GI50,NCI-H522,4.9 µM
same,GI50,DU-145,14 µM
same,GI50,MKN74,11 µM
same,IC50,HDF cells; [7],3.4 ± 0.36 µM
same,IC50,HDF cells; [8],> 100 µM
same,GI50,SF-539,0.27 µM
same,GI50,HBC-4,5 µM
same,GI50,HT-29,3.2 µM
same,Inhibition (%) Complex I,Complex I,15 ± 2.3%
same,GI50,HCT-116,1.5 µM
same,GI50,U251,1.5 µM
same,GI50,HCC2998,13 µM
same,GI50,St-4,13 µM
same,GI50 (μM) KM-12,KM-12,5.7 µM
same,GI50,NCI-H460,0.94 µM
same,GI50,MKN28,11 µM
same,inhibition at 5 µM,Complex II,3.2 ± 6.7%
same,IC50,Complexes I–III,0.46 ± 0.01 µM
same,GI50,A549,3.3 µM
same,GI50,BSY-1,20 µM
same,GI50,SF-268,5 µM
same,GI50,SK-OV-3,12 µM
same,GI50,DMS273,0.91 µM
same,GI50,DMS114,14 µM
same,GI50,PC-3,15 µM
same,GI50,ACHN,9.9 µM
same,GI50,HCT-15,0.58 µM
same,GI50,MKN1,16 µM
same,GI50,MKN45,20 µM
same,inhibition at 5 µM,Complex III,> 80%
same,GI50,SF-295,8 µM
same,GI50,MKN7,16 µM
same,GI50,NCI-H23,15 µM
same,GI50,MCF-7,4.9 µM
same,GI50,OVCAR-4,27 µM
